Assay results from PubChem BioAssay (NCI).
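Test compounds were applied to cells in 96-well plates for 48 hours at 5 doses. Here, GI50 denotes the concentration required for 50% inhibition of growth. TGI is the concentration that stops growth completely.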

Legend:
Assay in all cases: NCI-60 cell line screen, 48 h
[1] = system: NCI-H522 lung
[2] = system: U251 CNS
[3] = system: UACC-257 melanoma
[4] = system: OVCAR-8 ovarian
[5] = system: TK-10 renal
[6] = system: NCI/ADR-RES ovarian
[7] = system: NCI-H226 lung
[8] = system: HCT-15 colon
[9] = system: HS 578T breast
[10] = system: OVCAR-3 ovarian

SMILES	TGI [1] [µM]	TGI [2] [µM]	TGI [3] [µM]	TGI [4] [µM]	TGI [5] [µM]	TGI [6] [µM]	TGI [7] [µM]	TGI [8] [µM]	TGI [9] [µM]	TGI [10] [µM]	GI50 [6] [µM]
COc1cc(C2=NNC(=O)c3ccccc3N2c2nc(-c3cccs3)nc3ccc(Br)cc23)cc(OC)c1OC	> 100	92.9	> 100	> 100	89.9	30	> 100	24	44.1	27.8	
COc1cc(C2SC(C)C(=O)N2c2ccc(-c3csc(NS(=O)(=O)c4ccc(Cl)c(OC)c4)n3)cc2)ccc1O (stereo unspecified)	47.1	> 100	> 100	> 100	> 100	> 100	> 100	> 100	> 100	> 100	
O=C(CCCCCC(=O)N1CC(CCl)c2ccc([N+](=O)[O-])cc21)N1CC(CCl)c2ccc([N+](=O)[O-])cc21 (stereo unspecified)	> 100	> 100	> 100	> 100	> 100	> 100	> 100	> 100	> 100	> 100	
C=C1C(=O)O[C@H]2[C@H]3O[C@@H](C[C@@H]12)[C@@]1(C)CC[C@H](O1)[C@H](C)CCC[C@H]3C	2.84	2.82	3.41	2.82	2.98	2.99	3.87	3.55	12.4	2.37	
Cc1ccc(C(=O)N(Cc2ccccc2)Cc2ccccc2)cc1N=NN(C)C	38.7	> 100	53.4	> 100	> 100	> 100	56.2	> 90.1	75.2	43.1	
CCOC(=O)c1sc2nc(SC)nc3c2c1NCN3c1ccc(F)c(F)c1	> 100	30.8	> 100	29.4	64.1	> 88.8	> 79.9	> 100	30.8	19.5	
Cc1c(-c2ccccc2)nn2cc(-c3ccccc3)nnc12	55	85.7	> 100	> 100	> 100	> 100	49.5	44.5	75.6	> 100	
COc1ccc(/C=C/C(=O)c2cc(C(C)(C)C)c(O)c(C(C)(C)C)c2)cc1OC	72.1	29.8	23.3	> 100	47.4	49.7	43	> 100	> 77.2	> 100	
C(=N\Nc1ccc(-c2nc3ccccc3[nH]2)cc1)/c1c(-c2ccc(Cc3ccccc3)cc2)[nH]c2ccccc12	31.9	> 51.2	> 89.1	> 54.7	> 95.4	52.8	> 100	> 100	23	> 59.5	
COc1cc([C@@H]2c3cc4c(cc3[C@@H](Nc3ccccc3C(=O)c3ccccc3)[C@H]3COC(=O)[C@H]23)OCO4)cc(OC)c1OC	2.07	0.979	> 100	> 38.3	> 100	> 100	> 100	1.18	> 100	> 100	
CCN(CC)C(=S)Nc1ccc(-c2cc3ccc(O)cc3oc2=O)cc1	43.7	85.1	48.4	> 100	> 100	81.9	99.5	67.6	71.6	78.3	
CC1=NN(C(=O)CC(=O)Nc2ccccc2Cl)C(=O)C1N=Nc1ccc(S(=O)(=O)c2ccc(N=NC3C(=O)N(C(=O)CC(=O)Nc4ccccc4Cl)N=C3C)cc2)cc1 (stereo unspecified)	> 100	> 100	> 100	> 100	> 100	> 100	> 100	> 100	> 100	> 100	
CCOC(=O)c1c(Br)c(-c2ccc(OC)cc2)c(Br)n1C	83.9	> 100	95.8	> 100	94	55.3	87.5	64.2	47.6	67.7	23.7
CCOP(=O)(OCC)C(c1ccccc1)N(C(=O)NC(F)(F)F)c1cccc(F)c1 (stereo unspecified)	> 100	> 100	> 100	> 100	> 100	> 100	> 100	> 100	> 100	> 100	
C(/Cc1ccc2c(c1)OCO2)=N\NC1=NCCN1	> 100	> 100	> 100	> 100	> 100	> 100	> 100	> 100	> 100	> 100	
C/C(=C\c1ccccc1)C(=O)NCc1ccc(C(=O)NCCc2ccccc2)cc1	> 100	> 100	> 100	14.7	> 100	> 100	66.1	> 100	> 100	> 100	
C=CC(OC(C)=O)c1ccc(OC(=O)C(C)C)c(OC)c1 (stereo unspecified)	3.01	7.07	23.5	11.1	11.5	60.8	39.8	20	> 80.6	12.4	

SMILES	TGI [1] [µM]	TGI [2] [µM]	TGI [3] [µM]	TGI [4] [µM]	TGI [5] [µM]	TGI [6] [µM]	TGI [7] [µM]	TGI [8] [µM]	TGI [9] [µM]	TGI [10] [µM]	GI50 [6] [µM]
COC(=O)/C=C\C(C#N)(C#N)N=Cc1ccccc1	1.67	35.6	12.8	4.38	5.54	9.03	21	8.79	36.2	4.97	
COC(=O)[C@H]1NC(=O)CCSSC1(C)C	> 100	> 100	> 100	> 100	> 100	> 100	> 100	> 100	> 100	> 100	
Cc1ccc(-n2cc(-c3ccc(Cl)cc3)c3c(N/N=C4\SCC(=O)N4C)ncnc32)cc1	26.7	36.5	27.1	> 100	8.18	> 100	> 100	> 100	21.3	> 100	
C=C1c2nc3ccccc3n2C=C(c2ccc(C)cc2)N1c1ccc(C)cc1	56.7	> 100	> 100	> 100	> 100	> 78.9	> 44.4	> 80.6	> 100	> 100	
Cc1ccc2c(=O)c(C(=O)Nn3c(C)csc3=S)c[nH]c2n1	> 100	> 100	> 100	> 100	> 100	> 100	> 100	> 100	> 100	> 100	
O=[N+]([O-])c1ccc(N/N=C/CC(O)(C(F)(F)F)C(F)(F)F)c([N+](=O)[O-])c1	> 10	> 10	> 10	> 10	> 10	> 10	> 10	> 10	8.16	8.46	
COC(OC)C1OCC(n2cc(F)c(=O)[nH]c2=O)C1O (stereo unspecified)	> 100	> 100	> 100	> 100	> 100	> 100	> 100	> 100	> 100	> 100	
C[n+]1c(-c2ccc(/C=N/Nc3ccnc(N/N=C/c4ccc(-c5cn6ccsc6[n+]5C)cc4)n3)cc2)cn2ccsc21	> 100	> 100	76.2	> 100	> 100	> 100	60.6	> 100	> 100	> 100	
O=c1c2c3c(sc2nc2n1N=C(c1ccc(Cl)cc1)CS2)CCCC3	> 100	> 100	> 100	> 100	> 100	> 100	> 100	> 100	> 100	> 100	
CSc1cc(-c2ccccn2)nc(-c2ccccn2)c1	9.74	11.7	15.3	12.5	0.75	1	0.955	4.11	48.9	5	
C=CCc1cc(-c2cc(CC=C)c(O)c(CN(CC)CC)c2)cc(CN(CC)CC)c1O	70.8	> 100	68.5	> 100	> 100	> 100	98.7	51.7	> 100	> 100	
CSc1c(C#N)c(N)nc2c(N=Nc3ccc(Br)cc3)c(N)nn12	12	16.8	21.4	23.4	29.7	47.5	39.5	12	5.81	6.77	
CC(=O)OC(Cc1ccc2ccccc2n1)(C(F)(F)F)C(F)(F)F	2.16	18.2	0.328	3.96	2.55	> 19.6	4.77	7.46	6.58	1.99	
O=c1oc2ccc([N+](=O)[O-])cc2c(Nc2ccc3c(c2)Sc2ccccc2O3)c1[N+](=O)[O-]	33.8	33.6	69	77.3	58.3	85.5	35.8	35	90.9	31	
O=C(c1ccccc1)n1cc(-c2ccccc2)c2c(=O)[nH]cnc21	> 100	> 100	> 100	> 100	> 100	> 100	> 100	> 100	> 100	> 100	
CC(=O)c1ccccc1NCC(=O)Nn1cnc2ccc(S(=O)(=O)Nc3ccccc3C(C)=O)cc2c1=O	> 100	> 100	> 100	> 100	> 100	> 100	> 100	> 100	> 100	> 100	
COC1CC(OC2C(C)OC(OC3C(C)OC(OC4C(O)CC(O[C@H]5CC[C@@]6(C)C(=CC[C@]7(O)[C@@H]6C[C@@H](OC(C)=O)[C@@]6(C)[C@]7(O)CC[C@@]6(O)C(C)=O)C5)OC4C)CC3OC)CC2OC)OC(C)C1O (stereo partly specified)	> 12.5	> 12.5	> 12.5	> 12.5	> 12.5	> 12.5	> 12.5	> 12.5	> 12.5	> 12.5	
